Experimental data: patent EP3319959B1, “HETERO-HALO INHIBITORS OF HISTONE DEACETYLASE” (Alkermes, Inc., priority 2015, dated 2017)

Test system: recombinant human HDACs
Assay: HDAC enzymatic assay (LabChip capillary electrophoresis)
Type: biochemical
Conditions: 5 nM HDAC enzyme, 1 uM substrate, 5 hours pre-incubation, 17 hours reaction at 25°C; isoform not given
Protocol: All recombinant human HDACs were purchased from BPS Bioscience. The substrate, FAM-TSRHK(AC)KL-CONH, was synthesized at NanoSyn. Final assay reactions contained 100 mM HEPES (pH 7.5), 50 mM KCl, 0.1% BSA, 0.01% Triton X-100, 1% DMSO, 1 uM substrate and 5 nM HDAC enzyme. Enzyme and compounds were pre-incubated at 25°C for 5 hours and reactions were initiated by addition of substrate. 10 uL reactions were incubated for 17 hours at 25°C and terminated by the addition of 40 uL of buffer containing 100 mM HEPES (pH 7.5), 0.1% BSA, 0.01% Triton X-100 and 0.05% SDS. Substrate and product peptides present in each sample were separated electrophoretically using the LabChip 3000 capillary electrophoresis instrument. Change in the relative fluorescence intensity of the substrate and product peaks reflects enzyme activity. Reaction progress was determined as the product to sum ratio (PSR): P/(S+P), where P is the peak height of the product peptide and S is the peak height of the substrate peptide. Reactions were performed in duplicate at 12 concentrations, (3X serial dilutions starting at 30 uM). IC50 values were calculated using a 4 Parameter Logistic Model.

Row | SMILES | IC50
1 | Nc1ccc(-c2ccccc2)nc1NC(=O)N1CCn2ccnc2C1 [Compound 197] | > 5 µM
2 | Nc1ccc(-c2ccc(F)cc2)nc1NC(=O)N1CC2CC(N3CC(F)C3)CC2C1 (stereo not shown) [Compound 188] | 0.5 to 5 µM
3 | Nc1ccc(-c2ccccc2)nc1NC(=O)C1CCN(C2COC2)CC1 [Compound 381] | > 5 µM
4 | CN1CC(C(=O)Nc2nc(-c3ccc(F)cc3)ccc2N)C1 [Compound 204] | > 5 µM
5 | Nc1ccc(-c2ccc(F)cc2)nc1NC(=O)N1CC2CN(CCF)CC2C1 (stereo not shown) [Compound 183] | > 5 µM
6 | CN1CCN(C(=O)Nc2nn(-c3ccccc3)cc2N)CC1 [Compound 361] | > 5 µM
7 | Nc1ccc(-c2ccco2)nc1NC(=O)C1CN(c2ccccn2)C1 [Compound 193] | > 5 µM
8 | Nc1ccc(-c2cccs2)nc1NC(=O)N1Cc2ccc(CN3CCCC3)cc2C1 [Compound 410] | 0.1 to 0.5 µM
9 | Nc1ccc(-c2ccc(OC(F)F)cc2)nc1NC(=O)N1Cc2nccnc2C1 [Compound 228] | 0.5 to 5 µM
10 | Nc1ccc(-c2ccc(F)cc2)nc1NC(=O)N1Cc2cnc(C3CCOCC3)cc2C1 [Compound 240] | 0.1 to 0.5 µM
11 | Nc1ccc(-c2cccnc2)nc1NC(=O)N1CC2(CCNCC2)C1 [Compound 220] | > 5 µM
12 | Nc1ccc(-c2cccnc2)nc1NC(=O)C1CCN(Cc2ccccc2F)CC1 [Compound 378] | > 5 µM
13 | Nc1ccc(-c2cccnc2)nc1NC(=O)N1CCCC1 [Compound 221] | > 5 µM
14 | CN1CCN(Cc2cnc3c(c2)CN(C(=O)Nc2nc(-c4ccc(F)cc4)ccc2N)C3)CC1 [Compound 168] | 0.1 to 0.5 µM
15 | CN1CC=C(c2ccc3c(c2)CN(C(=O)Nc2nc(-c4ccc(F)cc4)ccc2N)C3)CC1 [Compound 362] | 0.1 to 0.5 µM
16 | Nc1ccc(-c2ccc(F)cc2)nc1NC(=O)N1Cc2cc(N3CCC3)cnc2C1 [Compound 157] | 0.1 to 0.5 µM
17 | CN1CCN(c2cc3c(cn2)CN(C(=O)Nc2nc(-c4ccc(F)cc4)ccc2N)C3)CC1 [Compound 160] | 0.1 to 0.5 µM
18 | Nc1ccc(-c2ccc(F)cc2)nc1NC(=O)N1CC2CN(C3CCOCC3)CC2C1 (stereo not shown) [Compound 236] | > 5 µM
19 | Nc1ccc(-c2ccco2)nc1NC(=O)N1CC2CN(Cc3ccccc3F)CC2C1 (stereo not shown) [Compound 175] | > 5 µM
20 | CN(C)CCN1CC2CN(C(=O)Nc3nc(-c4ccc(F)cc4)ccc3N)CC2C1 (stereo not shown) [Compound 166] | 0.5 to 5 µM
21 | CC(=O)N1CCN(C(=O)Nc2nn(-c3ccccc3)cc2N)CC1 [Compound 360] | > 5 µM
22 | CN1CC(CN2CC3CN(C(=O)Nc4nc(-c5ccc(F)cc5)ccc4N)CC3C2)C1 (stereo not shown) [Compound 256] | 0.5 to 5 µM
23 | COc1cccc(CN2CCCC3(CCN(C(=O)Nc4nn(-c5ccc(F)cc5)cc4N)C3)C2)c1 (stereo not shown) [Compound 124] | > 5 µM
24 | Nc1ccc(-c2ccco2)nc1NC(=O)N1CC2CN(C3COC3)CC2C1 (stereo not shown) [Compound 182] | > 5 µM
25 | CN1CCC(C(=O)Nc2nn(-c3ccccc3)cc2N)CC1 [Compound 354] | > 5 µM
26 | Nc1ccc(-c2ccccc2)nc1NC(=O)c1cn2c(n1)CNCC2 [Compound 208] | 0.5 to 5 µM
27 | Nc1ccc(-c2cccnc2)nc1NC(=O)c1nc2c(s1)CCN(CCF)C2 [Compound 164] | 0.5 to 5 µM

Row | SMILES | IC50
28 | Nc1ccc(-c2ccc(F)cc2)nc1NC(=O)N1Cc2cccc(F)c2C1 [Compound 259] | 0.1 to 0.5 µM
29 | Nc1ccc(-c2ccccc2)nc1NC(=O)C1CCN(Cc2ccccc2F)CC1 [Compound 379] | > 5 µM
30 | CN1CCn2cc(C(=O)Nc3nc(-c4ccccc4)ccc3N)nc2C1 [Compound 206] | 0.5 to 5 µM
31 | CN1CC(n2ncc3c2CN(C(=O)Nc2nc(-c4ccc(F)cc4)ccc2N)C3)C1 [Compound 246] | > 5 µM
32 | CN1CC2CN(C(=O)Nc3nc(-n4cccn4)ccc3N)CC2C1 (stereo not shown) [Compound 184] | > 5 µM
33 | Nc1ccc(-c2ccc(F)cc2)nc1NC(=O)N1CCC(C(F)(F)F)C1 (stereo not shown) [Compound 390] | 0.5 to 5 µM
34 | Nc1cnc(-c2ccc(F)cc2)cc1NC(=O)N1Cc2cnc(N3CCC3)cc2C1 [Compound 254] | 0.5 to 5 µM
35 | CN1CCc2sc(C(=O)Nc3nc(-c4ccc(F)cc4)ccc3N)nc2C1 [Compound 153] | 0.1 to 0.5 µM
36 | Nc1ccc(-c2ccc(F)cc2)nc1NC(=O)N1CCC(F)(F)C1 [Compound 364] | 0.5 to 5 µM
37 | Nc1ccc(-c2ccccc2)nc1NC(=O)N1CC2CC(NC3COC3)CC2C1 (stereo not shown) [Compound 191] | 0.5 to 5 µM
38 | Nc1ccc(-c2ccc(F)cc2)nc1NC(=O)[C@H]1[C@@H]2CN(C3COC3)C[C@@H]21 (stereo in doubt) [Compound 239] | > 5 µM
39 | CN1CCC(c2ccc3c(c2)CN(C(=O)Nc2nc(-c4ccc(F)cc4)ccc2N)C3)CC1 [Compound 387] | 0.5 to 5 µM
40 | Nc1cn(-c2ccccc2)nc1NC(=O)C1CCN(C2COC2)CC1 [Compound 359] | > 5 µM
41 | Nc1ccc(-c2cccnc2)nc1NC(=O)c1cn2c(n1)CNCC2 [Compound 219] | > 5 µM
42 | CN1CCC2(CC1)CCN(C(=O)Nc1nc(-c3cccnc3)ccc1N)C2 [Compound 210] | > 5 µM
43 | CN1CC2CN(C(=O)Nc3nc(-c4ccc(F)cc4)ccc3N)CC2C1 (stereo not shown) [Compound 201] | > 5 µM
44 | CN(C)[C@H]1[C@@H]2CN(C(=O)Nc3nc(-c4ccc(F)cc4)ccc3N)C[C@@H]21 [Compound 242] | > 5 µM
45 | Nc1ccc(-c2ccc(F)cc2)nc1NC(=O)C1CN(c2ccccn2)C1 [Compound 192] | > 5 µM
46 | Cc1cc(F)ccc1-c1ccc(N)c(NC(=O)N2Cc3cnc(CN(C)C)cc3C2)n1 [Compound 261] | > 5 µM
47 | Nc1ccc(-c2ccc(F)cc2)nc1NC(=O)N1CC2COCC2C1 (stereo not shown) [Compound 392] | 0.5 to 5 µM
48 | Nc1ccc(-c2ccccc2)nc1NC(=O)CN1CCn2cncc2C1 [Compound 194] | > 5 µM
49 | Nc1ccc(-n2cccn2)nc1NC(=O)N1Cc2ccncc2C1 [Compound 369] | 0.5 to 5 µM
50 | Nc1cn(-c2ccccc2)nc1NC(=O)N1CC2COCC2C1 (stereo not shown) [Compound 382] | > 5 µM
51 | CN1CCN(Cc2cccc3c2CN(C(=O)Nc2nc(-c4ccc(F)cc4)ccc2N)C3)CC1 [Compound 178] | > 5 µM
52 | COCC1CCN(C(=O)Nc2nc(-c3ccc(F)cc3)ccc2N)C1 (stereo not shown) [Compound 389] | > 5 µM
53 | CN(C1COC1)C1CC2CN(C(=O)Nc3nc(-c4ccc(F)cc4)ccc3N)CC2C1 (stereo not shown) [Compound 248] | 0.5 to 5 µM
54 | CN1CC(Cn2cc3c(n2)CN(C(=O)Nc2nc(-c4ccc(F)cc4)ccc2N)C3)C1 [Compound 245] | 0.1 to 0.5 µM

Row | SMILES | IC50
55 | Nc1ccc(-c2ccc(F)cc2)nc1NC(=O)N1CCN(C(=O)[C@@H]2C[C@H]2c2ccccc2)CC1 (stereo in doubt) [Compound 225] | 0.5 to 5 µM
56 | CN(C)Cc1ccc2c(c1)CN(C(=O)Nc1nn(-c3ccccc3)cc1N)C2 [Compound 351] | 0.1 to 0.5 µM
57 | COC1CCN(C(=O)Nc2nc(-c3ccc(F)cc3)ccc2N)C1 (stereo not shown) [Compound 388] | 0.5 to 5 µM
58 | Nc1ccc(-c2ccc(F)cc2)nc1NC(=O)N1CC2CN(C3COC3)CC2C1 (stereo not shown) [Compound 203] | > 5 µM
59 | Nc1ccc(-n2cccn2)nc1NC(=O)C1CN(Cc2ccccc2)C1 [Compound 205] | > 5 µM
60 | CN(C)Cc1ccc2c(c1)CN(C(=O)Nc1nc(-c3ccc(Cl)s3)ccc1N)C2 [Compound 401] | > 5 µM
61 | Nc1ccc(-c2ccccc2)nc1NC(=O)C1CN(c2ccccn2)C1 [Compound 195] | > 5 µM
62 | CC(=O)N1CCN(CC(=O)Nc2nc(-c3ccccc3)ccc2N)CC1 [Compound 196] | > 5 µM
63 | Nc1ccc(-c2ccc(F)cc2)nc1NC(=O)N1CCN2CCCC2C1 (stereo not shown) [Compound 224] | > 5 µM
64 | CN1CCC(N2CCC(C(=O)Nc3nc(-c4ccc(F)cc4)ccc3N)CC2)CC1 [Compound 368] | 0.5 to 5 µM
65 | CN(C)Cc1ccc2c(c1)CN(C(=O)Nc1nc(-c3cccs3)ccc1N)C2 [Compound 409] | 0.1 to 0.5 µM
66 | Nc1ccc(-n2cccn2)nc1NC(=O)N1Cc2cc(F)cnc2C1 [Compound 185] | 0.5 to 5 µM
67 | Nc1ccc(-c2ccc(F)cc2)nc1NC(=O)N1Cc2cnc(N3CCOCC3)cc2C1 [Compound 150] | 0.1 to 0.5 µM
68 | CN1CCC(N2CC3CN(C(=O)Nc4nc(-c5ccc(F)cc5)ccc4N)CC3C2)CC1 (stereo not shown) [Compound 169] | 0.5 to 5 µM
69 | Cc1ccc(C2CN(C(=O)Nc3nc(-c4ccc(F)cc4)ccc3N)C2)cc1 [Compound 170] | 0.5 to 5 µM
70 | Nc1ccc(-c2ccc(F)cc2)nc1NC(=O)N1Cc2cc(F)cnc2C1 [Compound 186] | 0.5 to 5 µM
71 | COc1cc2c(cn1)CN(C(=O)Nc1nc(-c3ccc(F)cc3)ccc1N)C2 [Compound 260] | 0.1 to 0.5 µM
72 | Cn1cc(CN2CCCC3(CCN(C(=O)Nc4nn(-c5ccc(F)cc5)cc4N)C3)C2)cn1 (stereo not shown) [Compound 123] | > 5 µM
73 | Nc1ccc(-c2ccc(F)cc2)nc1NC(=O)N1CC2CN(Cc3ccccc3F)CC2C1 (stereo not shown) [Compound 176] | 0.5 to 5 µM
74 | Nc1ccc(-c2ccc(F)cc2)nc1NC(=O)N1CC2CN(CC3CCOCC3)CC2C1 (stereo not shown) [Compound 235] | > 5 µM
75 | Nc1ccc(-c2cccnc2)nc1NC(=O)N1Cc2nccnc2C1 [Compound 214] | 0.5 to 5 µM
76 | COCc1ccc2c(c1)CN(C(=O)Nc1nc(-c3ccc(F)cc3)ccc1N)C2 [Compound 396] | 0.1 to 0.5 µM
77 | Nc1ccc(-c2ccc(F)cc2)nc1NC(=O)N1CC2CC(NC3COC3)CC2C1 (stereo not shown) [Compound 172] | 0.5 to 5 µM
78 | Nc1ccc(-n2cccn2)nc1NC(=O)C1CCN(Cc2ccccc2F)CC1 [Compound 370] | > 5 µM
79 | Nc1ccc(-c2ccc(F)cc2)nc1NC(=O)c1nc2c(s1)CCN(CCF)C2 [Compound 165] | 0.1 to 0.5 µM
